From ChEMBL document CHEMBL1201862, “PubChem BioAssay data set” (2004)
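Test compounds were applied to cells in 96-well plates for 48 hours at 5 doses. GI50 marks 50% less growth.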 Active and inactive are the calls of the source. Rule as the data show it: active = GI50 up to about 1.1 µM and inactive = higher.

Assays:
Experiment in all cases: NCI-60 cell line screen, 48 h
ACHN = tested on: ACHN
DLD-1 = tested on: DLD-1
K562 = tested on: K562
KM12 = tested on: KM12
LXFL 529 = tested on: LXFL 529
M19-MEL = tested on: M19-MEL
MOLT-4 = tested on: MOLT-4
NCI-H23 = tested on: NCI-H23
NCI-H460 = tested on: NCI-H460
OVCAR-4 = tested on: OVCAR-4
RPMI-8226 = tested on: RPMI-8226
RXF 393 = tested on: RXF 393
SF-295 = tested on: SF-295
SN12C = tested on: SN12C
UACC-62 = tested on: UACC-62
XF498 = tested on: XF498

Measured: GI50

CC(OC(C)(C)C)[C@H](NC(=O)OCC(Cl)(Cl)Cl)C(=O)O (stereo partly specified)
inactive: ACHN > 100 µM | DLD-1 > 100 µM | K562 > 100 µM | KM12 > 100 µM | LXFL 529 > 100 µM | M19-MEL > 100 µM | MOLT-4 > 100 µM | NCI-H23 > 100 µM | NCI-H460 > 100 µM | OVCAR-4 > 100 µM | RPMI-8226 > 100 µM | RXF 393 87.9 µM | SF-295 > 100 µM | SN12C > 100 µM | UACC-62 > 100 µM | XF498 > 100 µM

Cc1ccc(NC(=O)CC(=O)n2nc(-c3ccccc3)c(/N=N/c3ccccc3Cl)c2-c2ccccc2)cc1
inactive: ACHN 49.9 µM | DLD-1 > 10 µM | K562 94.8 µM | KM12 > 10 µM | LXFL 529 71.8 µM | M19-MEL > 10 µM | MOLT-4 > 10 µM | NCI-H23 39.5 µM | NCI-H460 75.5 µM | OVCAR-4 26.5 µM | RPMI-8226 > 10 µM | SF-295 48 µM | SN12C > 10 µM | UACC-62 45.4 µM | XF498 49 µM

O=C1C=CC2=[N+]([O-])C(c3ccccc3)(c3ccccc3)/C(=N\c3ccccc3)C2=C1
inactive: ACHN 1.74 µM | DLD-1 1.53 µM | K562 2.1 µM | LXFL 529 1.78 µM | M19-MEL 1.77 µM | MOLT-4 1.27 µM | NCI-H23 2.38 µM | NCI-H460 11 µM | OVCAR-4 1.8 µM | RPMI-8226 2.96 µM | RXF 393 1.6 µM | SF-295 14.5 µM | SN12C 2.22 µM | UACC-62 2.1 µM | XF498 1.31 µM

O=C1NC2=C(CCCC/C2=N\O)C12CCCCC2
inactive: ACHN > 100 µM | DLD-1 > 100 µM | K562 > 100 µM | KM12 > 100 µM | LXFL 529 > 100 µM | M19-MEL > 100 µM | MOLT-4 57.8 µM | NCI-H23 > 100 µM | NCI-H460 > 100 µM | OVCAR-4 > 100 µM | RXF 393 > 100 µM | SF-295 > 100 µM | SN12C > 100 µM | UACC-62 > 100 µM | XF498 > 100 µM
